Like-named read-outs stand apart in the source and are kept apart here.

The record followed here is US7169785B2, “Methods and compositions of novel triazine compounds” (Reddy US Therapeutics, Inc., priority 2001, dated 2007).

One series deals with cells. Put plainly: Cytotoxicity / lactate dehydrogenase assay and visual observation of cells. In kind it is cell-based. How it is done: Assays for determining the activity of compounds capable of cytotoxic activity include those taught in herein and others that are well known in the art. In general, to determine if there is cytotoxic activity associated with a compound, cells of a particular type, in a growing stage or a quiescient stage, are treated with the compound of interest. Various parameters of cell death or cessation are used to measure the effects of the compound. For example, the amount of nucleic acid or protein synthesis can be measured or visual observation of the state of the cells, such as release from the substrate, can be used to measure the state of the cells.
An appropriate number of cells are plated in four 96-well plates, one plate for “day 0” and three plates for days 1–3. Cells are treated with at least one compound of the present invention in varying concentrations with and without the apoptosis inducer cisplatin (2 μM) (“+cis” or “−cis”). Unteated cells are also assayed with and without cisplatin. After transfection, the plates are incubated at 37° C. overnight.
An appropriate number of cells are plated in four 96-well plates, one plate for “day 0” and three plates for days 1–3. Cells are treated with at least one compound of the present invention in varying concentrations. The negative control cells have normal media conditions, a duplicate set of wells is treated with the composition in which the compound is provided, but there is no added compound and the positive control cells are treated with the apoptosis inducer cisplatin (2 μM). All of the cells are transfected with a vector having a promoter that is responsive to apoptosis conditions. When apoptosis occurs, the promoter is turned on and the lactic dehydrogenase gene is activated and the enzyme protein is made and active. Activity is easily detected with a color change. After transfection, the plates are incubated at 37° C. overnight.
About 8 mls of warmed alpha MEM LDH lysis buffer (2% Triton X100) and about 8 mls of culture media (½ dilution) are combined. Two 96-well v-bottom plates are prepared, one labeled “lysis” and one labeled “supernatant.” To lyse the cells, about 200 μl Alpha MEM lysis buffer (diluted ½) is added to one test plate from which the supernatant has been removed and added to the plate labeled supernatant. After mixing, about 200 μl of lysed cells are transferred to the lysis plate. Both the lysis and supernatant plates are centrifuged at about 1600 rpm for about 10 min. After centrifugation, about 100 μl of both the supernatant or lysate is transferred to corresponding 96-well flat-bottomed plates.
The assay for cytotoxicity uses the Cytotoxicity Detection Kit (LDH) from Roche Diagnostics Corp. (Indianapolis, Ind.). Using the directionts provided, the dye solution is mixed and added each well of the lysate and supernatant plate and incubated for up to 20–25 min at 15–25° C. in the dark.

The test system of a further series is IL6. Nature of the series: Inflammation Data of Table 8: IL6 production compared to cells that did not receive compound (stimulus AGE or TNF not given). The series is classed as cell-based. The source says:
Additional bioactivity data for compounds of the present invention are presented in Table 8, where compounds that have at least the activity of effecting cellular proliferation or at least the activity of modulating inflammation activity, as measured by the assays taught herein, are provided. […] The inclusion of compounds in the categories of the Tables disclosed herein, including this Table, is not to be seen as limiting, in that compounds included in such Tables have at least the activity shown for inclusion in the Table and may have more or other activities. Nor are the Tables to be seen as limiting in that these are the only compounds disclosed herein that have that activity, representative compounds are shown in the Tables that have at least that particular activity for inclusion in the Table. One or more compounds disclosed herein have at least an activity that has utility in treatment of disease states. Note that any hydrogen atoms that are required for any atom to attain its usual valence in a structure presented in Table 8, whether a carbon atom or a heteroatom, should be inferred if it is not specifically indicated.

The subject of series [1] is Human aortic smooth muscle cells. Nature of the series: Smooth muscle cell proliferation assay (anti-proliferation assay, perlecan). The series is classed as cell-based.
In series [2] the test system is IL-6. Nature of the series: TNF-α-induced IL-6 production determined by IL-6 ELISA in HAEC. The series is classed as cell-based, human. The conditions noted are these: Homo sapiens, 24 h; Compds tested @ 10 uM; HAEC, IL6; read-out: % IL6 production compare to TNF stimulation of IL6 (100%). A general note: In an ELISA, binding on a coated surface is turned into a signal by an enzyme label.

The subject of series [3] is IL-6. Put plainly: AGE (G-HSA)-induced inflammatory response determined by IL-6 ELISA in HAEC. The series is classed as cell-based, human. The note with it: Homo sapiens; for activity at 10 µM: 24 h, Compds tested @ 10 uM, IL6, read-out: % IL6 production compare to AGE stimulation of IL6 (100%). On the procedure:
Human aortic endothelial cells (HAEC, Clonetics) were cultured according to manufacturer in growth medium (Clonetics): basal medium containing human epidermal growth factor, hydrocortisone, vascular endothelial growth factor, heparin binding growth factor-B, long R3-insulin-like growth factor-1, ascorbic acid, gentamicin/amphotericin and 5% FBS. These cell were allowed to reach at least 90% confluency before subjected to experimental treatments. […] Tumor necrosis factor α was from R&D Systems.
All treatments, compound-added and controls were carried out in serum free media containing 0.2% albumin. Media from all conditions were collected and used for IL-6 ELISA.
IL-6 ELISA was carried out using human IL-6 DuoSet ELISA development kit as described by manufacturer (R&D Systems). Mouse anti-human Il-6 was used as the capture antibody (2 ug/ml) and biotinylated goat anti-human IL-6 (200 ng/ml) was used as the detection antibody. Culture media were incubated with capture antibody (in 96 well) for 2 h at room temperature. Wells were washed three times with wash buffer (0.05% tween-20 in phosphate buffered saline (PBS) pH 7.4) followed by incubation with detection antibody for 2 h at room temperature. Following three washes wells were incubated with Streptavidin-HRP for 20 min. Color development was read at 450 nm in a Microplate reader.

With `CCN1CCCC1CNc1nc(Nc2ccccc2Br)nc(NC2CCCCCC2)n1` (stereo not shown) [Compound 22, N^2-(2-bromophenyl)-N^4-cycloheptyl-N^6-[(1-ethyl-2-pyrrolidinyl)methyl]-1,3,5-triazine-2,4,6-triamine], the Toxicity result in the series on cells (toxic or cause cell death) is given as “toxic”.
Consider `CCN1CCCC1CNc1nc(Nc2ccc(OC)c(F)c2)nc(N2CCCC3CCCCC32)n1` (stereo not shown) [Compound 59, N^2-[(1-ethyl-2-pyrrolidinyl)methyl]-N^4-(3-fluoro-4-methoxyphenyl)-N^6-octahydro-1(2H)-quinolinyl-1,3,5-triazine-2,4-diamine], for which, in the series on cells (toxic or cause cell death), the Toxicity entry is listed as “toxic”.
Same read-out and setting: the entry for `CCN1CCCC1CNc1nc(Nc2ccc(Oc3ccccc3)cc2)nc(NC2CCCCCC2)n1` (stereo not shown) [Compound 36, N^2-cycloheptyl-N^4-[(1-ethyl-2-pyrrolidinyl)methyl]-N^6-(4-phenoxyphenyl)-1,3,5-triazine-2,4,6-triamine] is “toxic”; for `CCN1CCCC1CNc1nc(Nc2ccc(OC)c(F)c2)nc(NC2CCCCCCC2)n1` (stereo not shown) [Compound 54, N^2-cyclooctyl-N^4-[(1-ethyl-2-pyrrolidinyl)methyl]-N^6-(3-fluoro-4-methoxyphenyl)-1,3,5-triazine-2,4,6-triamine] it is “toxic”.
A word on the inhibition: it is the change of the read-out against control, counted positive when it falls. Low values mean a response near the control, high ones a response far below the control. On to `COc1ccc(Nc2nc(NC3CCCCCC3)nc(OCC3CCCN3)n2)cc1Cl` (stereo not shown) [drawing 994], for which, in the series with IL6 (at 10 uM), the inhibition at 10 µM was 75%. Moreover, the “Proliferation Data (result in words)” value in series [1] (5 & 10 uM screens) is on record as “Not active at 5 & 10 uM”.
As for `CCN1CCCC1CNc1nc(Nc2ccc(F)c(F)c2)nc(NC2CCCCCC2)n1` (stereo not shown) [Compound 8, N^2-cycloheptyl-N^4-(3,4-difluorophenyl)-N^6-[(1-ethyl-2-pyrrolidinyl)methyl]-1,3,5-triazine-2,4,6-triamine], the Toxicity result in the series on cells (toxic or cause cell death) is recorded as “toxic”.
For the compound `COc1ccc(Nc2nc(NC3CCCCCC3)nc(OC3CCCN(C(C)=O)C3)n2)cc1Cl` (stereo not shown) [drawing 992], the “Inflammation Data, inhibition” value in the series on IL6 (at 10 uM) is on record as “complete inhibition at 10 uM”. Also, the “Proliferation Data (result in words)” value in series [1] (5 & 10 uM screens) is recorded as “Not active at 5 & 10 uM”.
Turning to `CCN1CCCC1CNc1nc(Nc2ccc(Br)cc2)nc(NC2CCCCCC2)n1` (stereo not shown) [Compound 13, N^2-(4-bromophenyl)-N^4-cycloheptyl-N^6-[(1-ethyl-2-pyrrolidinyl)methyl]-1,3,5-triazine-2,4,6-triamine], the Toxicity entry in the series on cells (toxic or cause cell death) is “toxic”.
For `COc1ccc(Nc2nc(NC3CCCCCC3)nc(OCc3cccc(C)n3)n2)cc1Cl`, 10 µM produced 60% inhibition in the series on IL6 (at 10 uM). The “Proliferation Data (result in words)” value in series [1] (concentration not given) is “Not active”.
As a reminder, the IC50 is the concentration needed to halve the response being measured. `COc1ccc(Nc2nc(NCCN(C)C)nc(NC3CCCCCC3)n2)cc1F` [Compound 93, N^2-cycloheptyl-N^4-[2-(dimethylamino)ethyl]-N^6-(3-fluoro-4-methoxyphenyl)-1,3,5-triazine-2,4,6-triamine]: the activity at 10 µM in the series with IL-6 [2] stood at 13%; in the series with IL-6 [3], 6%. The Toxicity entry in the series on cells (toxic or cause cell death) is “toxic”. Further, the IC50 with IL-6 [3] (IL6, unit inferred, read-out: IC50 (AGE stimulation of IL6)) came out at 3.36 µM.
On to `CCN1CCCC1CNc1nc(Nc2ccc(OC(F)(F)F)cc2)nc(NC2CCCCCC2)n1` (stereo not shown) [Compound 9, N^2-cycloheptyl-N^4-[(1-ethyl-2-pyrrolidinyl)methyl]-N^6-[4-(trifluoromethoxy)phenyl]-1,3,5-triazine-2,4,6-triamine], for which the Toxicity result in the series with cells (toxic or cause cell death) is given as “toxic”.
Turning to `CCN1CCCC1CNc1nc(Nc2ccc(Cl)c(Cl)c2)nc(NC2CCCCCC2)n1` (stereo not shown) [Compound 7, N^2-cycloheptyl-N^4-(3,4-dichlorophenyl)-N^6-[(1-ethyl-2-pyrrolidinyl)methyl]-1,3,5-triazine-2,4,6-triamine], the Toxicity result in the series on cells (toxic or cause cell death) was “toxic”.
For `COc1ccc(Nc2nc(NC3CC3)nc(N(C)C3CCN(C)CC3)n2)cc1Cl`, the “cell death under Inflammation Data” value in the series on cells (10 uM) is listed as 15%.
With `CCN1CCCC1CNc1nc(NC2CCCCCC2)nc(N(C)c2ccc(OC(F)(F)F)cc2)n1` (stereo not shown) [Compound 47, N^2-cycloheptyl-N^4-[(1-ethyl-2-pyrrolidinyl)methyl]-N^6-methyl-N^6-[4-(trifluoromethoxy)phenyl]-1,3,5-triazine-2,4,6-triamine], the Toxicity result with cells (toxic or cause cell death) is given as “toxic”.
Turning to `COc1ccc(Nc2nc(OCC3CCCCC3)nc(N(C)C3CCN(C)CC3)n2)cc1Cl` [Compound 119, N-(3-Chloro-4-methoxy-phenyl)-6-cyclohexylmethoxy-N′-methyl-N′-(1-methyl-piperidin-4-yl)-[1,3,5]triazine-2,4-diamine], in the series on cells, the Toxicity result is reported as “toxic”.
In the case of `CCN1CCCC1CNc1nc(Nc2cccc(F)c2)nc(NC2CCCCCC2)n1` (stereo not shown) [Compound 16, N^2-cycloheptyl-N^4-[(1-ethyl-2-pyrrolidinyl)methyl]-N^6-(3-fluorophenyl)-1,3,5-triazine-2,4,6-triamine], the Toxicity entry in the series on cells (toxic or cause cell death) is on record as “toxic”.
`CCN1CCCC1CNc1nc(Nc2ccc(OC)c(Cl)c2)nc(NC2CCCCCC2)n1` (stereo not shown) [Compound 136, N^2-(3-chloro-4-methoxy-phenyl)-N^4-cycloheptyl-N^6-(1-ethyl-pyrrolidin-2-ylmethyl)-1,3,5-triazine-2,4,6-triamine]: the Toxicity result in the series with cells (at 3 uM, very toxic) is “Nothing but celldebris at 3 uM verytoxic”.
As for `CCN1CCCC1CNc1nc(Nc2ccc(Cl)cc2)nc(NC2CCCCCC2)n1` (stereo not shown) [Compound 12, N^2-(4-chlorophenyl)-N^4-cycloheptyl-N^6-[(1-ethyl-2-pyrrolidinyl)methyl]-1,3,5-triazine-2,4,6-triamine], the Toxicity entry in the series with cells (toxic or cause cell death) is recorded as “toxic”.
For the compound `CCN1CCCC1CNc1nc(Nc2ccc(OC)c(F)c2)nc(Nc2ccc(OC)c(F)c2)n1` (stereo not shown), the inhibition at 5 µM with IL6 (at 5 uM) worked out at 25%. This compound also had an inhibition at 10 µM in the series on IL6 (at 10 uM) of 35%.
For `CCN1CCCC1CNc1nc(Nc2cccc3cccnc23)nc(NC2CCCCCC2)n1` (stereo not shown) [Compound 5, N^2-cycloheptyl-N^4-[(1-ethyl-2-pyrrolidinyl)methyl]-N^6-(8-quinolinyl)-1,3,5-triazine-2,4,6-triamine], in the series with cells (toxic or cause cell death), the Toxicity result is listed as “toxic”.
On to `CCN1CCCC1CNc1nc(Nc2ccccc2Cl)nc(NC2CCCCCC2)n1` (stereo not shown) [Compound 21, N^2-(2-chlorophenyl)-N^4-cycloheptyl-N^6-[(1-ethyl-2-pyrrolidinyl)methyl]-1,3,5-triazine-2,4,6-triamine], for which, in the series on cells (toxic or cause cell death), the Toxicity result was “toxic”.
Regarding `CCN1CCCC1CNc1nc(Nc2cnc3ccccc3c2)nc(NC2CCCCCC2)n1` (stereo not shown) [Compound 3, N^2-cycloheptyl-N^4-[(1-ethyl-2-pyrrolidinyl)methyl]-N^6-(3-quinolinyl)-1,3,5-triazine-2,4,6-triamine], the Toxicity entry with cells (toxic or cause cell death) is recorded as “toxic”. Moreover, in the series with IL-6 [3], the activity at 10 µM amounted to 1%.
For the compound `CCOC(=O)c1ccc(Nc2nc(NCC3CCCN3CC)nc(NC3CCCCCC3)n2)cc1` (stereo not shown) [Compound 14, Ethyl 4-[(4-(cycloheptylamino)-6-{[(1-ethyl-2-pyrrolidinyl)methyl]amino}-1,3,5-triazin-2-yl)-amino]benzoate], the Toxicity result with cells (toxic or cause cell death) is reported as “toxic”.
